Measured values taken from US4959373A, “Bispidine derivatives as class III antiarrhythmic agents” (BASF Aktiengesellschaft, priority 1987, dated 1990).
Where a name gives a salt, the structure may show the parent alone.

test system: QT interval; assay: Antiarrhythmic Class III action in guinea pigs after intravenous administration (QT interval prolongation in the ECG); assay type: in vivo, Pirbright white guinea pigs; details: Cavia porcellus, anesthetized with urethane, ED 20% from linear relationship between log dose and relative QT prolongation (Δ%)
Procedure: The experimental animals used are male and female Pirbright white guinea pigs weighing from 300 to 500 g. Anesthesia is effected with 1.5 g/kg of urethane administered intraperitoneally. The substances are administered intravenously. To measure the ECG conduction times and the heart rate, the II. limb lead is recorded. The relevant parameters are the QT and PQ intervals and the heart rate. From 4 to 6 animals are used per dose. The criterion for Class III action is an increase in the QT interval compared with the values prior to administration of the substance. An increase in the PQ interval and a sharp decrease in the heart rate serve as exclusion criteria. The ED 20% is calculated from the linear relationship between log dose (mg/kg) of the substance and the relative prolongation of the QT interval (Δ%).

| Compound | ED (20%) [mg/kg] |
| --- | --- |
| Nc1ccc(C(=O)N2CC3CC(CN(Cc4ccccc4)C3)C2)cc1 [Ambasilide, reference compound] | 6.3 |
| CC(C)NC[C@@H](O)c1ccc(NS(C)(=O)=O)cc1 [D-sotalol, reference compound] | 3.6 |
| O=C(c1ccc(Cl)cc1)N1CC2CC(CN(Cc3ccccc3)C2)C1 [Example 2, 7-benzyl-3-(4-chlorobenzoyl)-3,7-diazabicyclo[3.3.1]nonyl hydrochloride] | 4.6 |
| Cc1ccc(NC(=O)N2CC3CC(CN(Cc4ccccc4)C3)C2)cc1 [Example 21, 7-Benzyl-3-(4-methylphenylcarbamyl)-3,7-diazabicyclo[3.3.1]nonane] | 2.6 |
| O=C(Nc1ccc(Cl)cc1)N1CC2CC(CN(Cc3ccccc3)C2)C1 [Example 23, 7-Benzyl-3-(4-chlorophenylcarbamyl)-3,7-diazabicyclo[3.3.1]nonane] | 2.4 |
| O=C(Nc1ccccc1)N1CC2CC(CN(Cc3ccc(Cl)cc3)C2)C1 [Example 26, 3-(Phenylcarbamyl)-7-(4-chlorobenzyl)-3,7-diazabicyclo[3.3.1]nonane] | 3.6 |
